# Paper PMC6691761, “Potential multifunctional agents with anti-hepatoma and anti-inflammation properties by inhibiting NF-кB activation” (Journal of Enzyme Inhibition and Medicinal Chemistry, 2019)
# Key:
# Format in all cases: cell-based
# [1] = tested on: human cervical carcinoma cells (HeLa); test: Cytotoxicity, MTT assay, HeLa; conditions: for IC50: MTT, 24 h; for HeLa SI (selectivity index): quotient of IC50 towards LO2 cells
# Description: (§1) Compounds 83–102 were screened against human neoplastic cell lines, such as human breast cancer cells (MCF-7), human colon cancer cells (HCT116), human lung carcinoma cells (A549), human gastric adenocarcinoma cells (SGC7901), human liver hepatocellular carcinoma cell line (HepG2), human cervical carcinoma cells (HeLa), human acute mononuclear granulocyte leukaemia (THP-1), and human normal hepatic cell line (LO2) using modified MTT assay. All the cells were obtained from the American Type Culture Collection (ATCC, Manassas, VA). The cells were cultured in DMEM or 1640. Positive controls (Doxorubicin (DOX) and Curcumin) and BAPs were initially dissolved in dimethyl sulphoxide (DMSO). Experimental concentration of DMSO was always 0.1% (v/v). The concentrations of BAPs and positive controls were 50, 20, 10, 5, 2.5, 1, 0.5, 0.1, 0.05, and 0.01 μg/mL.
# (§2) The cells (1 × 10^4 cells/well) were seeded in a 96-well plate and incubated for 24 h. Cells treated with serial concentrations of drugs were incubated for another 24 h. After the media removed, 20 μL of MTT (5 mg/mL) solution was added and incubated for 4 h at 37 °C. The MTT solution was removed and then 150 μL of DMSO was added. The optical density was measured with a multi-well plate reader (TECAN, Mӓnnedorf, Switzerland) at 570 nm. The results are expressed as a decrease in the cell viability (%) in comparison to untreated controls. The concentration of each compound was examined in triplicate, and the IC50 values are expressed in Table 1.
# [2] = tested on: human liver hepatocellular carcinoma cell line (HepG2); test: Cytotoxicity, MTT assay, HepG2; conditions: for IC50: MTT, 24 h; for HepG2 SI (selectivity index): quotient of IC50 towards LO2 cells
# Description: as §1, §2
# [3] = tested on: human gastric adenocarcinoma cells (SGC7901); test: Cytotoxicity, MTT assay, SGC7901; conditions: for IC50: MTT, 24 h; for SGC7901 SI (selectivity index): quotient of IC50 towards LO2 cells
# Description: as §1, §2
# [4] = tested on: human breast cancer cells (MCF-7); test: Cytotoxicity, MTT assay, MCF-7; conditions: for IC50: MTT, 24 h; for MCF-7 SI (selectivity index): quotient of IC50 towards LO2 cells
# Description: as §1, §2
# [5] = tested on: human lung carcinoma cells (A549); test: Cytotoxicity, MTT assay, A549; conditions: for IC50: MTT, 24 h; for A549 SI (selectivity index): quotient of IC50 towards LO2 cells
# Description: as §1, §2
# [6] = tested on: human normal hepatic cell line (LO2); test: Toxicity to normal cells, MTT assay, LO2; conditions: 24 h
# Description: as §1, §2
# [7] = tested on: human colon cancer cells (HCT116); test: Cytotoxicity, MTT assay, HCT116; conditions: for IC50: MTT, 24 h; for HCT116 SI (selectivity index): quotient of IC50 towards LO2 cells
# Description: as §1, §2
# [8] = tested on: human acute mononuclear granulocyte leukaemia (THP-1); test: Cytotoxicity, MTT assay, THP-1; conditions: for IC50: MTT, 24 h; for THP-1 SI (selectivity index): quotient of IC50 towards LO2 cells
# Description: as §1, §2
SMILES,IC50 [1] [µM],HeLa SI (selectivity index) [1],IC50 [2] [µM],HepG2 SI (selectivity index) [2],IC50 [3] [µM],SGC7901 SI (selectivity index) [3],IC50 [4] [µM],MCF-7 SI (selectivity index) [4],IC50 [5] [µM],A549 SI (selectivity index) [5],IC50 [6] [µM],IC50 [7] [µM],HCT116 SI (selectivity index) [7],IC50 [8] [µM],THP-1 SI (selectivity index) [8],also measured
COc1ccc(/C=C2\CN(C)C/C(=C\c3ccc(Cl)c(Cl)c3)C2=O)cc1 [Compound 91],17 ± 1.3,0.8,4.5 ± 0.7,3.2,6.4 ± 0.1,2.2,12.5 ± 0.5,1.1,9.2 ± 0.1,1.5,14.2 ± 0.3,18.1 ± 0.2,0.8,7.2 ± 0.2,2.0,–
"COc1cc(/C=C/C(=O)CC(=O)/C=C/c2ccc(O)c(OC)c2)ccc1O [Curcumin, reference compound]",–,1.5,–,1.4,–,1.2,–,1.4,–,1.2,–,–,1.6,–,1.4,"IC50 ([1]; Homo sapiens, HeLa): 19.4 ± 0.6 µM; IC50 ([2]; Homo sapiens, HepG2, 24 h): 20.7 ± 0.1 µM; IC50 ([3]; Homo sapiens, SGC-7901): 22.8 ± 0.6 µM; IC50 ([4]; Homo sapiens, MCF7): 20.5 ± 0.2 µM; IC50 ([5]; Homo sapiens, A549, 24 h): 22.7 ± 1 µM; IC50 ([6]; Homo sapiens): 28.3 ± 1.2 µM; IC50 ([7]; Homo sapiens, HCT-116): 17.2 ± 0.3 µM; IC50 ([8]; Homo sapiens, THP-1, 24 h): 20.8 ± 0.6 µM"
COc1cc(/C=C2\CN(C)C/C(=C\c3ccc(F)cc3Br)C2=O)cc(OC)c1OC [Compound 88],5.3 ± 0.3,2.8,5.3 ± 0.2,2.8,3.6 ± 0.1,4.1,6.3 ± 0.4,2.3,5.6 ± 0.3,2.6,14.8 ± 0.3,6.5 ± 0.3,2.3,7.6 ± 0.2,1.9,–
CN1CC(=Cc2cccc(N=Cc3ccc(O)cc3O)c2)C(=O)C(=Cc2ccccc2F)C1 [Compound 98],6.2 ± 0.1,2.8,7.5 ± 0.1,2.3,10.9 ± 0.3,1.6,10.3 ± 0.7,1.7,3.2 ± 0.7,5.5,17.6 ± 0.2,11.4 ± 0.7,1.5,5.1 ± 0.2,3.5,–
CN1C/C(=C\c2cccc([N+](=O)[O-])c2)C(=O)/C(=C/c2ccc(F)cc2Br)C1 [Compound 87],9.4 ± 0.5,1.5,5.4 ± 0.5,2.5,4.7 ± 0.3,2.9,11.6 ± 0.3,1.2,4.3 ± 0.3,3.2,13.7 ± 0.5,7.7 ± 0.4,1.8,6.6 ± 0.1,2.1,–
"CN1C/C(=C\c2cccc([N+](=O)[O-])c2)C(=O)/C(=C/c2ccccc2F)C1 [Compound 83, (3E,5E)-3–(2-fluorobenzylidene)-1-methyl-5–(3-nitrobenzylidene)piperidin-4-one]",–,5.2,–,–,–,3.5,–,1.8,–,5.7,–,–,2.1,–,–,"IC50 ([1]; Homo sapiens, HeLa): 2.5 ± 0.3 µM; IC50 ([2]; Homo sapiens, HepG2, 24 h): 1.2 ± 0.2 µM; IC50 ([3]; Homo sapiens, SGC-7901): 3.7 ± 0.3 µM; IC50 ([4]; Homo sapiens, MCF7): 7.2 ± 0.3 µM; IC50 ([5]; Homo sapiens, A549, 24 h): 2.3 ± 0.2 µM; IC50 ([6]; Homo sapiens): 13.1 ± 0.8 µM; IC50 ([7]; Homo sapiens, HCT-116): 6.2 ± 0.6 µM; IC50 ([8]; Homo sapiens, THP-1, 24 h): 1.3 ± 0.1 µM"
COc1ccc(C=Nc2cccc(C=C3CN(C)CC(=Cc4ccccc4F)C3=O)c2)c(O)c1 [Compound 101],8.9 ± 0.2,1.6,4.8 ± 0.1,2.9,10.8 ± 0.1,1.3,4.7 ± 0.2,3.0,3.5 ± 0.2,4.0,13.9 ± 0.3,4.9 ± 0.1,2.8,3.5 ± 0.2,4.0,–
CN1CC(=Cc2cccc(N=Cc3ccc(Cl)c(Cl)c3)c2)C(=O)C(=Cc2ccccc2F)C1 [Compound 95],4.3 ± 0.1,2.6,2.5 ± 0.1,4.4,3.3 ± 0.5,3.3,5.4 ± 0.2,2.0,3.1 ± 0.2,3.5,11 ± 0.4,6.3 ± 0.2,1.7,3.8 ± 0.1,2.9,–
COc1ccc(/C=C2\CN(C)C/C(=C\c3cc(OC)c(OC)c(OC)c3)C2=O)cc1 [Compound 90],15.5 ± 0.2,1.1,8.2 ± 0.6,2.0,7 ± 0.4,2.4,15.5 ± 0.9,1.1,5.8 ± 0.2,2.8,16.5 ± 0.1,12.1 ± 0.4,1.4,5 ± 0.3,3.3,–
CN1CC(=Cc2cccc(N=Cc3ccc(Cl)cc3)c2)C(=O)C(=Cc2ccccc2F)C1 [Compound 94],11.1 ± 0.3,1.6,4.8 ± 0.1,3.8,6.4 ± 0.1,2.8,6.5 ± 0.1,2.8,5.9 ± 0.3,3.1,18 ± 0.3,6.3 ± 0.1,2.9,4 ± 0.1,4.5,–
CN1C/C(=C\c2cc(F)cc(F)c2)C(=O)/C(=C/c2cccc([N+](=O)[O-])c2)C1 [Compound 85],14.2 ± 0.6,1.4,14.3 ± 0.1,1.4,24.5 ± 0.8,0.8,18.5 ± 0.4,1.1,9.7 ± 0.2,2.1,20.3 ± 0.1,13.2 ± 0.5,1.5,5.4 ± 0.3,3.8,–
COc1cc(Br)c(O)c(C=Nc2cccc(C=C3CN(C)CC(=Cc4ccccc4F)C3=O)c2)c1 [Compound 102],9.1 ± 0.2,1.6,5.9 ± 0.1,2.5,7 ± 0.4,2.1,15.5 ± 1.2,1.0,13.4 ± 0.7,1.1,14.8 ± 0.1,18.1 ± 1.9,0.8,5 ± 0.2,3.0,–
CN1C/C(=C\c2cccc([N+](=O)[O-])c2)C(=O)/C(=C/c2ccc(F)cc2F)C1 [Compound 84],10.2 ± 0.2,1.9,8.2 ± 0.3,2.4,7.6 ± 0.8,2.5,8.5 ± 0.2,2.3,6.2 ± 0.3,3.1,19.3 ± 0.3,9.5 ± 0.1,2.0,11.8 ± 0.2,1.6,–
CN1C/C(=C\c2cccc([N+](=O)[O-])c2)C(=O)/C(=C/c2cc(F)ccc2F)C1 [Compound 86],11.5 ± 0.8,1.9,9.2 ± 0.4,2.3,20.5 ± 0.5,1.0,11.1 ± 0.7,1.9,9.3 ± 0.4,2.3,21.3 ± 0.4,10.5 ± 0.9,2.0,7 ± 0.2,3.0,–
